According to US8877718B2, “Antiinfective and antitumoral compounds isolated from tropical lianas” (Julius-Maximilians-Universität Würzburg, priority 2008, dated 2014):

Key:
[1] = tested on: Leishmania donovani (MHOM-ET-67/L82 strain) amastigote forms; assay: Antiinfective effect against axenic amastigotes of Leishmania donovani (Alamar Blue fluorescence); assay type: cell-based; details: for inhibition at 0.8 µg/mL: c = 0.8 μg/ml, read-out: Inhibition of cell growth (%) at c = 0.8 μg/ml; for inhibition at 4.8 µg/mL: c = 4.8 μg/ml, read-out: Inhibition of cell growth (%) at c = 4.8 μg/ml; for activity against Leishmania donovani (in words): summary of Table 6
Method: Amastigote forms of Leishmania donovani (MHOM-ET-67/L82 strain) were grown in axenic culture at 37° C. and pH 5.4 in SM medium (I. Cunningham, J. Protozool. 1977, 24, 325-329) supplemented with 10% fetal bovine serum. For the assay, amastigote forms were seeded into a microtiter plate containing two concentrations of each substance to be tested. After 72 h the dye Alamar Blue (Resazurin) was added to each culture, and the plate was incubated for two more hours. Fluorescence at 536/588 nm was measured using a microtiter plate fluorometer, and the fluorescence signal of each culture treated with a substance was compared to the fluorescence signal of untreated control cultures. The antileishmanial drug miltefosine served as a positive control.

[2] = tested on: INA-6 (multiple myeloma) cell line; assay: Cell viability, annexin V-FITC/PI flow cytometry, INA-6; assay type: cell-based; details: human tumor cell line INA-6 (multiple myeloma); 72 h incubation
Text: (§1) Both cell lines of aggressive B cell lymphoma (DOHH-2, SU-DHL-4) and the multiple myeloma cell line RPMI8226 were obtained from the German Collection of Microorganisms and Cell Cultures (DSMZ) (ACC 47, ACC 495, and ACC 402, Braunschweig, Germany). The cultivation of the multiple myeloma cell line INA-6 had been previously described (R. Burger, A. Guenther, F. Bakker, M. Schmalzing, S. Bernand, W. Baum, B. Duerr, G. M. Hocke, H. Steininger, E. Gebhart, M. Gramatzki, Hematol. J. 2001, 2, 42-53). Normal mononuclear blood cells from the peripheral blood of two healthy donors were isolated by Ficoll-Hypaque density gradient centrifugation. To assess the percentage of apoptotic and viable cell fractions, a human annexin V-FITC/PI staining kit (Bender MedSystems, Vienna, Austria) was used. Cells (inoculation: 50000 cells mL^−1; incubation: 72 h) were washed in PBS, incubated for 10 min in 100 ml binding buffer (10 mM HEPES/NaOH, pH 7.4, 140 mM NaCl, 2.5 mM CaCl2) containing 2.5 ml annexin V-FITC mix and 1 mg/ml propidium iodide (PI), subsequently diluted with 300 ml binding buffer and analyzed by flow cytometry (FACSCalibur/CELLQuest; Becton Dickinson, Heidelberg, Germany). Early apoptosis is characterized by a positive annexin V-FITC staining. Cells in a late apoptotic stage lose their membrane integrity and additionally incorporate PI. […]

[3] = tested on: normal peripheral mononuclear blood cells; assay: Cell viability, annexin V-FITC/PI flow cytometry, normal blood cells; assay type: cell-based, human; details: FIG. 9; for toxicity against normal peripheral mononuclear blood cells: cells of two healthy donors; for 50% response (EC50) in primary mononuclear blood cells: within the preferred therapeutic concentration range
Text: Both cell lines of aggressive B cell lymphoma (DOHH-2, SU-DHL-4) and the multiple myeloma cell line RPMI8226 were obtained from the German Collection of Microorganisms and Cell Cultures (DSMZ) (ACC 47, ACC 495, and ACC 402, Braunschweig, Germany). The cultivation of the multiple myeloma cell line INA-6 had been previously described (R. Burger, A. Guenther, F. Bakker, M. Schmalzing, S. Bernand, W. Baum, B. Duerr, G. M. Hocke, H. Steininger, E. Gebhart, M. Gramatzki, Hematol. J. 2001, 2, 42-53). Normal mononuclear blood cells from the peripheral blood of two healthy donors were isolated by Ficoll-Hypaque density gradient centrifugation. To assess the percentage of apoptotic and viable cell fractions, a human annexin V-FITC/PI staining kit (Bender MedSystems, Vienna, Austria) was used. Cells (inoculation: 50000 cells mL^−1; incubation: 72 h) were washed in PBS, incubated for 10 min in 100 ml binding buffer (10 mM HEPES/NaOH, pH 7.4, 140 mM NaCl, 2.5 mM CaCl2) containing 2.5 ml annexin V-FITC mix and 1 mg/ml propidium iodide (PI), subsequently diluted with 300 ml binding buffer and analyzed by flow cytometry (FACSCalibur/CELLQuest; Becton Dickinson, Heidelberg, Germany). Early apoptosis is characterized by a positive annexin V-FITC staining. Cells in a late apoptotic stage lose their membrane integrity and additionally incorporate PI. Viable cells are negative for both, annexin V-FITC and PI. The optical density of the controls was equaled to 100%.

[4] = tested on: RPMI8226 (multiple myeloma) cell line; assay: Cell viability, annexin V-FITC/PI flow cytometry, RPMI8226; assay type: cell-based; details: RPMI-8226; human tumor cell line RPMI8226 (multiple myeloma); 72 h incubation
Text: as §1

[5] = tested on: DOHH-2 (aggressive B cell lymphoma) cell line; assay: Cell viability, annexin V-FITC/PI flow cytometry, DOHH-2; assay type: cell-based; details: human tumor cell line DOHH-1-2 (aggressive B cell lymphoma), 72 h incubation
Text: as §1

[6] = tested on: SU-DHL-4 (aggressive B cell lymphoma) cell line; assay: Cell viability, annexin V-FITC/PI flow cytometry, SU-DHL-4; assay type: cell-based; details: human tumor cell line SU-DH-4 L (aggressive B cell lymphoma), 72 h incubation
Text: as §1

[7] = Leishmania donovani, 72 h, axenic amastigotes

melting point [°C]	EC50 [2] [µM]	EC50 [4] [µM]	EC50 [5] [µM]	EC50 [6] [µM]	SMILES	inhibition at 0.8 µg/mL [1, 7] [%]	inhibition at 4.8 µg/mL [1, 7] [%]	toxicity against normal peripheral mononuclear blood cells [3]	50% response (EC50) in primary mononuclear blood cells [3]	activity against Leishmania donovani (in words) [1]	inhibition at 0.22 µg/mL ([1]; Leishmania donovani, c = 0.22 μg/ml (positive control), 72 h, axenic amastigotes, read-out: Inhibition of cell growth (%)) [%]
218					COc1ccc2c(c1OC)C(=O)C(O)=C(C)C2=O [Ancistroquinone C (1f), 3-Hydroxy-5,6-dimethoxy-2-methyl-1,4-naphthoquinone]						
					COc1cc(O)c2c(c1OC)C(=O)C(O)=C(C)C2=O [Ancistroquinone D (1c), 3,8-dihydroxy-5,6-dimethoxy-2-methyl-1,4-naphthoquinone]	11.4	31.7				
					CC1=C(O)C(=O)c2c(O)c3c(c(O)c2C1=O)OCO3 [Ancistroquinone E (1d), 3,5,8-trihydroxy-2-methyl-6,7-methylenedioxy-1,4-naphthoquinone]	19.6	30.5				
					COc1c2c(cc3c1C(=O)C(O)=C(C)C3=O)OCO2 [Ancistroquinone F (1e), 3-hydroxy-5-methoxy-2-methyl-6,7-methylenedioxy-1,4-naphthoquinone]	0.3	28.6				
189	29	58	37	32	CC1=C(O)C(=O)c2c(ccc(O[C@@H]3OC(CO)[C@@H](O)[C@H](O)[C@H]3O)c2O)C1=O (stereo partly drawn) [Dioncoquinone A (1a), 3,5,6-trihydroxy-2-methyl-1,4-naphthoquinone-6-O-β-glucoside]	49.6	80.3	non-toxic	neither for Dioncoquinone A (1a) or for Dioncoquinone B (1b) a 50% response was achieved	excellent	
216 to 217	11	18	9.4	7.6	CC1=C(O)C(=O)c2c(ccc(O)c2O)C1=O [Dioncoquinone B (1b), 3,5,6-trihydroxy-2-methyl-1,4-naphthoquinone]	79.2	87.6	non-toxic	neither for Dioncoquinone A (1a) or for Dioncoquinone B (1b) a 50% response was achieved	excellent	
					CCCCCCCCCCCCCCCCOP(=O)([O-])OCC[N+](C)(C)C [Miltefosine, miltefosine, reference compound]						53
